Calls of active or inactive are those of the source. The rule behind the calls is not given here.

The test system of this assay is Candida albicans. The assay is described as follows: Antifungal activity against Candida albicans. It counts as functional, organism-based.
As to `CC(C)CC[C@H](O)[C@](C)(O)[C@H]1CC[C@@]2(O)C3=CC(=O)[C@@H]4C[C@@H](O)[C@@H](O)C[C@]4(C)[C@H]3[C@H](O)C[C@]12C`, the outcome was inactive.
In the case of `CC(C)(O)CC[C@H](O)[C@](C)(O)[C@H]1CC[C@@]2(O)C3=CC(=O)C4=C[C@@H](O)[C@@H](O)C[C@]4(C)[C@H]3CC[C@]12C`, the outcome was inactive.
The same measure for `CNc1nc2c(C)ccc3nc(N(C)C)[nH]c3c-2n1`: “inactive”; for `CC(C)(O)CC[C@@H](O)[C@](C)(O)[C@H]1CC[C@@]2(O)C3=CC(=O)[C@@H]4C[C@@H](O)[C@@H](O)C[C@]4(C)[C@H]3CC[C@]12C`: “inactive”.

The record behind these values is ChEMBL document CHEMBL1159223, “4-Dehydroecdysterone, a new ecdysteroid from the zoanthid Parazoanthus sp” (J Nat Prod, 1995).
